The results in this text go back to patent publication US9738677B2, “Amphotericin B derivative with reduced toxicity” (priority 2014, dated 2017).

Each structure is given as a SMILES string. Converted amounts (≈) assume the structure as drawn. “Also recorded” adds a separate entry of the source.

The nature of data set [1]: ITC sterol binding, POPC LUVs containing 10% ergosterol. The protocol: Isothermal Titration calorimetry (ITC)
In an optimized isothermal titration calorimetry (ITC)-based assay, an aqueous solution of AmB was titrated with a suspension of large unilamellar vesicles (LUVs) comprised of only 1-palmitoyl-2-oleoyl-sn-glycero-3-phosphocholine (POPC), and the net exotherm was recorded. The titration was repeated using POPC LUVs containing 10% ergosterol. […] The titration was repeated using C2′epiAmB. […] The ITC assay was also conducted with cholesterol in place of ergosterol.
Experiments were performed using a NanoITC isothermal titration calorimeter (TA Instruments, Wilmington, Del.). Solutions of the compounds to be tested were prepared by diluting a 60.0 mM stock solution of the compound in DMSO to 600 μM with K buffer (5.0 mM HEPES/KHEPES, pH=7.4). The final DMSO concentration in the solution was 1% v/v. Large unilamellar vesicles comprised of only 1-palmitoyl-2-oleoyl-sn-glycero-3-phosphocholine (POPC LUVs) were prepared and phosphorus and ergosterol content was quantified as described below. The LUV solutions were diluted with buffer and DMSO to give a final phospholipid concentration of 12.0 mM in a 1% DMSO/K buffer solution. Immediately prior to use, all solutions were incubated at 37° C. for 30 minutes and degassed under vacuum at 37° C. for 10 minutes. The reference cell of the instrument (volume=0.190 mL) was filled with a solution of 1% v/v DMSO/K buffer.
Palmitoyl oleoyl phosphatidylcholine (POPC) was obtained as a 20 mg/mL solution in CHCl3 from Avanti Polar Lipids (Alabaster, Ala.) and was stored at −20° C. under an atmosphere of dry argon and used within 1 month. […]
Ergosterol content was determined spectrophotometrically. […] The solutions were then analyzed by UV/Vis spectroscopy and the concentration of ergosterol in solution was determined by the extinction coefficient of 10400 L mol^−1 cm^−1 at the UVmax of 282 nm and was compared to the concentration of phosphorus to determine the percent sterol content. The extinction coefficient was determined independently in the above ternary solvent system. […]

Data set [2] deals with healthy mice. The data set is described as follows: Acute toxicity, single intravenous administration, lethality. It is filed as in vivo, mouse. The method, then:
FIG. 8 is a graph depicting lethality in healthy mice resulting from single intravenous administrations in the doses indicated of AmB or C2′epiAmB.
In a separate experiment, acute toxicity was determined by single intravenous administration of AmB or C2′epiAmB to healthy mice, followed by monitoring for lethality.

In data set [3] the test system is C. albicans. The data set is described as follows: Broth microdilution MIC assay. The following applies: Candida albicans, 24 hours, 37° C., no visible growth. The data set is classed as cell-based. The method, then: Exemplary methods for antifungal activity assays are as follows:
C. albicans was cultured in a similar manner to S. cerevisiae except both liquid and solid cultures were incubated at 37° C.
The protocol for the broth microdilution assay was adapted from the Clinical and Laboratory Standards Institute document M27-A2. Clinical and Laboratory Standards Institute. Reference Method for Broth Dilution Antifungal Susceptibility Testing, M27-A2, Approved Standard 2nd Ed. Vol. 22, Number 15, 2002. 50 mL of YPD media was inoculated and incubated overnight at either 30° C. (S. cerevisiae) or 37° C. (C. albicans) in a shaker incubator. The cell suspension was then diluted with YPD to an OD600 of 0.10 (˜5×10^5 cfu/mL) as measured by a Shimadzu (Kyoto, Japan) PharmaSpec UV-1700 UV/Vis spectrophotometer. The solution was diluted 10-fold with YPD, and 195 μL aliquots of the dilute cell suspension were added to sterile Falcon (Franklin Lakes, N.J.) Microtest 96-well plates in triplicate. Compounds were prepared either as […] (AmB, C2′deOAmB) or 2 mM (AmdeB) stock solutions in DMSO and serially diluted to the following concentrations with DMSO: 1600, 1200, 800, 400, 320, 240, 200, 160, 120, 80, 40, 20, 10 and 5 μM. 5 μL aliquots of each solution were added to the 96-well plate in triplicate, with each column representing a different concentration of the test compound. […]
Background: Dilution methods test growth across graded concentrations, often in twofold steps.

On to `C[C@@H]1[C@H](O)[C@@H](C)/C=C/C=C/C=C/C=C/C=C/C=C/C=C/[C@H](O[C@@H]2O[C@H](C)[C@@H](O)[C@H](N)[C@H]2O)CC2O[C@](O)(C[C@@H](O)C[C@@H](O)[C@H](O)CC[C@@H](O)C[C@@H](O)CC(=O)O[C@H]1C)C[C@H](O)[C@H]2C(=O)O` [C2′epiAmB], for which the Total exotherm in data set [1] (10% ergosterol LUVs, 600 μM compound) was -15.24 ± 1.66 µcal. In data set [1] (net exotherm vs sterol-free LUVs), the “Binding to ergosterol (in words)” value is “binds to ergosterol; also recorded: retained capacity for the epimeric derivative to bind ergosterol”. In data set [2] (healthy mice, single intravenous doses up to 16 mg/kg), the Lethality entry is “no deaths observed”. Besides, the “Acute toxicity compared to AmB (in words)” value in data set [2] (mice) was “significantly less toxic; also recorded: substantially less toxic to mice”. In addition, the lowest concentration to inhibit growth in data set [3] (MIC) was 2 µM (≈ 1.85 µg/mL).
